Measurements taken from ChEMBL document CHEMBL1649551, “Antifungal activity of tamoxifen: in vitro and in vivo activities and mechanistic characterization” (2009).
≈ marks a conversion by molar mass, not a printed value. Calls of active or inactive are those of the source. The rule behind the calls is not given here.

What was measured:
[1] = biological target: Calmodulin (Saccharomyces cerevisiae S288c) (UniProt P06787); test: Inhibition of Myo2-GFP binding to Saccharomyces cerevisiae BY4741 calmodulin at 50 ug/ml by Western blot analysis
Chain of Calmodulin (Saccharomyces cerevisiae S288c) (P06787 whole entry): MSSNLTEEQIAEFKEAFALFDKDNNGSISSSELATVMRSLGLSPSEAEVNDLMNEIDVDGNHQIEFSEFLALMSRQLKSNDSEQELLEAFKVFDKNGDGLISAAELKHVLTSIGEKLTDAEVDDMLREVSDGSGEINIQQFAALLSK

[2] = tested on: Saccharomyces cerevisiae; test: Antifungal activity against Saccharomyces cerevisiae BY4741 after 24 hrs by CLSI method; type: functional; settings: BY4741, 24 h
[3] = tested on: Candida albicans; test: Antifungal activity against Candida albicans ATCC 90028 after 24 hrs by CLSI method; type: functional; settings: ATCC 90028, 24 h
[4] = tested on: Candida albicans; test: Antifungal activity against Candida albicans SC5314 after 24 hrs by CLSI method; type: functional; settings: SC5314, 24 h
[5] = tested on: Candida parapsilosis; test: Antifungal activity against Candida parapsilosis R058-G12 after 24 hrs by CLSI method; type: functional; settings: Lodderomyces parapsilosis, R058-G12, 24 h
[6] = tested on: Candida dubliniensis; test: Antifungal activity against Candida dubliniensis CD1 after 24 hrs by CLSI method; type: functional; settings: CD1, 24 h
[7] = tested on: Nakaseomyces glabratus; test: Antifungal activity against Candida glabrata MR084-G12 after 24 hrs by CLSI method; type: functional; settings: MR084-G12, 24 h
[8] = tested on: Candida tropicalis; test: Antifungal activity against Candida tropicalis MR064-H after 24 hrs by CLSI method; type: functional
[9] = tested on: Cryptococcus neoformans; test: Antifungal activity against Cryptococcus neoformans NYS3-81 after 24 hrs by CLSI method; type: functional; settings: NYS3-81, 24 h
[10] = tested on: Cryptococcus neoformans; test: Antifungal activity against Cryptococcus neoformans KN99alpha after 24 hrs by CLSI method; type: functional
[11] = tested on: Saccharomyces cerevisiae; test: Antifungal activity against Saccharomyces cerevisiae BY4741 assessed as inhibition fungal bud formation at 8 ug/ml; type: functional, organism-based
[12] = tested on: Saccharomyces cerevisiae; test: Antifungal activity against Saccharomyces cerevisiae BY4741 assessed as appearance of unbudded cells with more than one nucleus at 8 ug/ml; type: functional
[13] = tested on: Saccharomyces cerevisiae; test: Antifungal activity against Saccharomyces cerevisiae BY4741 at 8 ug/ml by alexa fluor-phalloidin staining; type: functional, organism-based
[14] = tested on: Candida albicans; test: Antifungal activity against Candida albicans SC5314 at 16 ug/ml after 2 hrs by alexa fluor-phalloidin staining; type: functional, organism-based
[15] = tested on: Candida albicans; test: Antifungal activity against Candida albicans SC5314 infected in BALB/c mouse assessed as fungal count per gram of kidney at 200 mg/kg, po administered for 7 days prior to fungal infection; type: functional
[16] = tested on: Saccharomyces cerevisiae; test: Antifungal activity against Saccharomyces cerevisiae BY4741 expressing PKC1 at 62 to 125 ug/mL after 3 days by photographic analysis; type: functional, organism-based
[17] = tested on: Saccharomyces cerevisiae; test: Antifungal activity against Saccharomyces cerevisiae BY4741 expressing CMD1 at 62 to 125 ug/mL after 3 days by photographic analysis; type: functional, organism-based

SMILES | inhibition [1] | MIC [2] [µg/mL] | MIC [3] [µg/mL] | MIC [4] [µg/mL] | MIC [5] [µg/mL] | MIC [6] [µg/mL] | MIC [7] [µg/mL] | MIC [8] [µg/mL] | MIC [9] [µg/mL] | MIC [10] [µg/mL] | Activity [11] | Activity [12] [%] | Activity [13] | Activity [14] | log10cfu [15] | Activity [16] | Activity [17]
CN1CCN(CCCN2c3ccccc3Sc3ccc(Cl)cc32)CC1 | Active |  |  |  |  |  |  |  |  |  |  |  |  |  |  |  | 
CCN(CC)CCOc1ccc(C(=C(Cl)c2ccccc2)c2ccccc2)cc1 [CLOMIPHENE] |  | 18 (≈ 44.3 µM) | > 64 | 32 (≈ 78.8 µM) | 64 (≈ 158 µM) | 32 (≈ 78.8 µM) | 32 (≈ 78.8 µM) | 64 (≈ 158 µM) | 64 (≈ 158 µM) | 64 (≈ 158 µM) |  |  |  |  |  |  | 
CC/C(=C(\c1ccccc1)c1ccc(OCCN(C)C)cc1)c1ccccc1 [TAMOXIFEN] | Active | 12 (≈ 32.3 µM) | 32 (≈ 86.1 µM) | 32 (≈ 86.1 µM) | 64 (≈ 172 µM) | 16 (≈ 43.1 µM) | 8 (≈ 21.5 µM) | 32 (≈ 86.1 µM) | 64 (≈ 172 µM) | 64 (≈ 172 µM) | Active | 15 | Active | Active | 1.5 | Active | Active
